Data from publication PMC10791743, “Selective CK1α degraders exert antiproliferative activity against a broad range of human cancer cell lines” (Nature Communications, 2024).

Key:
Test in all cases: cells
Set-up in all cases: Oncolines panel cell viability, ATPlite 1Step luminescence, duplicate 9-point dose response, IC50
U-2 OS = details: Homo sapiens, U2OS; 72 h viability; read-out: SJ3149
DLD-1 = details: Homo sapiens, DLD-1; 72 h viability; read-out: SJ3149
A-704 = details: Homo sapiens, A704; 72 h viability; read-out: SJ3149
PF-382 = details: Homo sapiens, PF-382; 72 h viability; read-out: SJ3149
C-33 A = details: Homo sapiens, C-33-A; 72 h viability; read-out: SJ3149
THP-1 = details: Homo sapiens, THP-1; 72 h viability; read-out: SJ3149
HCT 116 = details: Homo sapiens, HCT-116; 72 h viability; read-out: SJ3149
Hs 578T = details: Homo sapiens, Hs-578T; 72 h viability; read-out: SJ3149
DB = details: Homo sapiens, DB; 72 h viability; read-out: SJ3149
PFSK-1 = details: Homo sapiens, PFSK-1; 72 h viability; read-out: SJ3149
DU 145 = details: Homo sapiens, DU-145; 72 h viability; read-out: SJ3149
PC-3 = details: Homo sapiens, PC-3; 72 h viability; read-out: SJ3149

Measured: IC50

O=C1CCC(N2Cc3cc(Nc4noc5ccccc45)ccc3C2=O)C(=O)N1 (stereo not drawn) [SJ3149]
> 31.6 µM: all assays above
